{"source": "paper PMC6295333", "about": "(Biochemistry, 2018)", "target": "Nicotine oxidoreductase (NicA2) (Pseudomonas putida, UniProt F8G0P2)", "sequence (F8G0P2 whole entry)": "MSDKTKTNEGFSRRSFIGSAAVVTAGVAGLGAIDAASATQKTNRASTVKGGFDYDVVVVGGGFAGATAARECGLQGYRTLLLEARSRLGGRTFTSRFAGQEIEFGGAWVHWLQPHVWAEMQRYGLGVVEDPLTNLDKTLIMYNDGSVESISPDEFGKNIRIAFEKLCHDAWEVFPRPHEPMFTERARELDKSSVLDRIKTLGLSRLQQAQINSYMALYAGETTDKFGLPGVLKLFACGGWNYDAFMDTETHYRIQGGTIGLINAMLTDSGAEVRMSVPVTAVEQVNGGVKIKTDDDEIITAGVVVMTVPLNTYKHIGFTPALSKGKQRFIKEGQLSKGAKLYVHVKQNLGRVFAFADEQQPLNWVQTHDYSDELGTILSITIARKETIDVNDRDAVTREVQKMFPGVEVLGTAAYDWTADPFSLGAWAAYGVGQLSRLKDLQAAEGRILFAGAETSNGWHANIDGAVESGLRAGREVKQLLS", "experiment": "X-ray crystal structure at […] Å", "type": "binding", "data": [{"smiles": "Cc1cc2nc3c(=O)[nH]c(=O)nc-3n(C[C@H](O)[C@H](O)[C@H](O)COP(=O)(O)OP(=O)(O)OC[C@H]3O[C@@H](n4cnc5c(N)ncnc54)[C@H](O)[C@@H]3O)c2cc1C", "note": "[FAD]", "values": [{"measurement": "X-ray crystal structure at 2.65 Å", "result": "The general positioning of FAD is clearly defined in the electron density maps"}]}]}
